Literature values in patent US11450405B2, “Techniques for modeling parathyroid gland functionality and calcimimetic drug activity” (Fresenius Medical Care Holdings, Inc., priority 2018, dated 2022).
Like-named read-outs stand apart in the source and are kept apart here.

Experiments:
PTH concentration = conditions: after the administration of cinacalcet
[1] = for effect of hemodialysis on the pharmacokinetics: hemodialysis patients
[2] = listed as Cinacalcet hydrochloride

For `C[C@@H](NCCCc1cccc(C(F)(F)F)c1)c1cccc2ccccc12` [cinacalcet], the “fraction of the drug in the plasma that is protein bound” value is given as “Around 95%”, the “fraction of the drug in the plasma that is protein bound” value [2] is given as about 95% and the “time after dosing at which PTH concentration reaches a minimum” value (PTH concentration) is given as 2 to 3 h. The “bio-availability on administration with food” value ([1]; administration with food) was “higher”, the “peak concentrations on administration with food” value ([1]; administration with food) was “higher” and the “total exposure values on administration with food” value ([1]; administration with food) was “higher”. The “time at which plasma concentration peaks” value ([1]; following oral administration) was 2 to 6 h, the “effect of hemodialysis on the pharmacokinetics” value [1] was “negligible” and the “effect of hemodialysis on the pharmacokinetics” value [1, 2] was “not altered”. The “higher terminal half-life values in hepatic impairment” value ([1]; moderate to severe hepatic impairment) was 40-70%, the absolute bioavailability ([1]; oral administration) was 20-25% and the absorption ([1]; oral administration) was about 100%. For the same compound, the “Bio (bioavailability), reference range” value ([1]; single 75 mg dose) was 20-25%, the “VD, reference range” value ([1]; single 75 mg dose) was 1000 to 1250 L and the “half-life of distribution t1/2^D, reference value” ([1]; single 75 mg dose) was 6 h. For the same compound, the “terminal half-life, reference range” value ([1]; single 75 mg dose) was 30 to 40 h, the “tmax, reference range” value ([1]; single 75 mg dose) was 1 to 6 h and the “Cmax, mean reference value” ([1]; single 75 mg dose, SD 9.4) was 26.6 ng/mL. For the same compound, the “mean apparent oral clearance rate CL/F” value ([1]; single 75 mg dose, SD 148) was 314 L/h, the “apparent oral clearance rate CL/F (target)” value ([1]; single oral dose of 75 mg) was “around 314 L/h” and the “apparent volume of distribution at steady state VD (target)” value ([1]; single oral dose of 75 mg) was “around 1000 L”. The “distribution half-life tD (target)” value ([1]; single oral dose of 75 mg) was 6 h, the “time until the maximum plasma concentration is reached (target)” value ([1]; single oral dose of 75 mg) was “around 2.3 hours” and the “volume of distribution at steady state” value ([1]; steady state) was 1000 L.
